# According to patent publication US8415356B2, “Isoquinolinone derivatives as NK3 antagonists” (H. Lundbeck A/S, priority 2008, dated 2013):
# Tested on: not given
# Assay: not given
# Settings: schizophrenics; cited from earlier work
row,Compound,effect in clinical trials on cognitive behaviour
1,CC[C@H](NC(=O)c1c(O)c(-c2ccccc2)nc2ccccc12)c1ccccc1 [talnetant],ameliorate the cognitive behaviour

# Tested on: not given
# Assay: not given
# Settings: versus placebo; delusions, hallucinations and paranoia; cited from earlier work
row,Compound,"effect in clinical trials, in particular on positive symptoms of psychosis"
1,"CC(=O)N(C)C1(c2ccccc2)CCN(CCC[C@]2(c3ccc(Cl)c(Cl)c3)CCCN(C(=O)c3ccccc3)C2)CC1 [Osanetant, osanetant]",superior to placebo

# Target: T1, human NK3 receptor (Homo sapiens, UniProt P29371)
# T1 construct: expressed in transfected cells; membranes prepared from them
# T1 sequence (P29371 1-465): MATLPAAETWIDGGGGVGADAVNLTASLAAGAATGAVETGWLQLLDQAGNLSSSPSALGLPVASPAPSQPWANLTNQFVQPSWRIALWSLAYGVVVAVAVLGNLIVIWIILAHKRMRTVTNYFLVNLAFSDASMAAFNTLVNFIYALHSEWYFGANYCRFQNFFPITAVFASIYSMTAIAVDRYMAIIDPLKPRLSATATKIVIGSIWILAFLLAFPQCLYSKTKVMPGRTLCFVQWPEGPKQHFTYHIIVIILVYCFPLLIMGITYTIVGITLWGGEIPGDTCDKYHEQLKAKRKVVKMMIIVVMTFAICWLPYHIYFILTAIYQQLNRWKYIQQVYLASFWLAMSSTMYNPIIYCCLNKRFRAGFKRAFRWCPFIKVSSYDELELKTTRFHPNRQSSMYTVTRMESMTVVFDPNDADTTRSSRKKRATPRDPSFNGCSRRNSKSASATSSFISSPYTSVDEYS
# Assay: NK3 receptor binding assay (SPA-based competition binding with 125I-NKB)
# Settings: read-out: Affinity Ki/nM
# Protocol: Membrane preparation: BHK cells stably expressing the human NK3 receptor were seeded in harvesting plates in Dulbeccos MEM containing GlutaMax (862 mg/l), 1 mM sodium pyruvate, 10% fetal calf serum, 1% Pen/Strep, 1 mg/ml G418 and were grown at 34° C. in a humidified atmosphere containing 10% CO2. To increase receptor expression, 10 μM trichotatin A was added to the media 24 hours before harvest of the cells at a confluency of app 90%. Prior to the harvesting, the cells were washed twice with PBS without Mg^2+ og Ca^2+ and subsequently scrapped of in 10 ml PBS pr harvesting plate. The cells suspension were centrifuged at 1500×G in three minutes before resuspension in 15 mM Tris-HCl pH 7.5 buffer containing 2 mM MgCl2; 0.3 mM EDTA and 1 mM EGTA (buffer A). The cell suspention was homogenised and subsequently centrifuged at 40000×G in 30 minutes. The membrane-pellet was resuspended in buffer A containing 250 mM sucrose, aliquoted and stored at −80° C.
# Affinity assay description: The assay was performed as a SPA-based competition-binding assay in a 50 mM Tris pH 7.4 assay buffer containing 120 mM NaCl, 3 mM MnCl2, 40 μg/ml bacitracin, 2 μg/ml Chymostatin, 1 μg/ml Phosphoramidon and 4 μg/ml Leupeptin. […] The assay plate was subsequently under agitation incubated for 90 min at RT. The plate was centrifugated 10 minutes at 500×G and counted in a topcounter 5 minutes pr well.
row,Compound,Ki
1,"Cc1c(C(=O)N[C@H](c2cccc(F)c2)C2CC2)c2cccc(F)c2c(=O)n1-n1cccc1 [2ac, 8-Fluoro-3-methyl-1-oxo-2-pyrrol-1-yl-1,2-dihydro-isoquinoline-4-carboxylic acid [(S)-cyclopropyl-(3-fluoro-phenyl)-methyl]-amide]",96 nM
2,"Cc1c(C(=O)N[C@H](c2cccc(F)c2)C2CC2)c2cccc(F)c2c(=O)n1-c1ccccn1 [2b, 8-Fluoro-3-methyl-1-oxo-2-pyridin-2-yl-1,2-dihydro-isoquinoline-4-carboxylic acid [(S)-cyclopropyl-(3-fluoro-phenyl)-methyl]-amide]",150 nM
3,"Cc1c(C(=O)N[C@H](c2cccc(F)c2)C2CC2)c2cccc(F)c2c(=O)n1-c1ccc(Cl)nc1 [2d, 2-(6-Chloro-pyridin-3-yl)-8-fluoro-3-methyl-1-oxo-1,2-dihydro-isoquinoline-4-carboxylic acid [(S)-cyclopropyl-(3-fluoro-phenyl)-methyl]-amide]",120 nM
4,"Cc1c(C(=O)N[C@H](c2cccc(F)c2)C2CC2)c2cccc(F)c2c(=O)n1-c1cncnc1 [2k, 8-Fluoro-3-methyl-1-oxo-2-pyrimidin-5-yl-1,2-dihydro-isoquinoline-4-carboxylic acid [(S)-cyclopropyl-(3-fluoro-phenyl)-methyl]-amide]",110 nM
5,"Cc1ccc(-n2c(C)c(C(=O)N[C@H](c3cccc(F)c3)C3CC3)c3cccc(F)c3c2=O)cn1 [2l, 8-Fluoro-3-methyl-2-(6-methyl-pyridin-3-yl)-1-oxo-1,2-dihydro-isoquinoline-4-carboxylic acid [(S)-cyclopropyl-(3-fluoro-phenyl)-methyl]-amide]",220 nM
6,"Cc1csc(-n2c(C)c(C(=O)N[C@H](c3cccc(F)c3)C3CC3)c3cccc(F)c3c2=O)n1 [2r, 8-Fluoro-3-methyl-2-(4-methyl-thiazol-2-yl)-1-oxo-1,2-dihydro-isoquinoline-4-carboxylic acid [(S)-cyclopropyl-(3-fluoro-phenyl)-methyl]-amide]",150 nM
7,"Cc1c(C(=O)N[C@H](c2cccc(F)c2)C2CC2)c2cccc(F)c2c(=O)n1-n1cnnc1 [2u, 8-Fluoro-3-methyl-1-oxo-2-[1,2,4]triazol-4-yl-1,2-dihydro-isoquinoline-4-carboxylic acid [(S)-cyclopropyl-(3-fluoro-phenyl)-methyl]-amide]",200 nM
8,"CCc1nnc(-n2c(C)c(C(=O)N[C@H](c3cccc(F)c3)C3CC3)c3cccc(F)c3c2=O)s1 [2v, 2-(5-Ethyl-[1,3,4]thiadiazol-2-yl)-8-fluoro-3-methyl-1-oxo-1,2-dihydro-isoquinoline-4-carboxylic acid [(S)-cyclopropyl-(3-fluoro-phenyl)-methyl]-amide]",210 nM
9,"Cc1c(C(=O)N[C@H](c2cccc(F)c2)C2CCC2)c2cccc(F)c2c(=O)n1-c1ccn(C)n1 [3f, 8-Fluoro-3-methyl-2-(1-methyl-1H-pyrazol-3-yl)-1-oxo-1,2-dihydro-isoquinoline-4-carboxylic acid [(S)-cyclobutyl-(3-fluoro-phenyl)-methyl]-amide]",71 nM
10,"Cc1c(C(=O)N[C@H](c2ccccc2)C2CCC2)c2cccc(F)c2c(=O)n1-c1cccnc1 [4a, 8-Fluoro-3-methyl-1-oxo-2-pyridin-3-yl-1,2-dihydro-isoquinoline-4-carboxylic acid ((S)-cyclobutyl-phenyl-methyl)-amide]",18 nM
11,"CC(C)(C)N1CCN(Cc2c(C(=O)N[C@H](c3cccc(F)c3)C3CC3)c3cccc(F)c3c(=O)n2-c2cccnc2)CC1 [6a, 3-(4-tert-Butyl-piperazin-1-ylmethyl)-8-fluoro-1-oxo-2-pyridin-3-yl-1,2-dihydro-isoquinoline-4-carboxylic acid [(S)-cyclopropyl-(3-fluoro-phenyl)-methyl]-amide]",13 nM
12,"O=C(N[C@H](c1cccc(F)c1)C1CC1)c1c(CN2CCCC2=O)n(-c2cccnc2)c(=O)c2c(F)cccc12 [6b, 8-Fluoro-1-oxo-3-(2-oxo-pyrrolidin-1-ylmethyl)-2-pyridin-3-yl-1,2-dihydro-isoquinoline-4-carboxylic acid [(S)-cyclopropyl-(3-fluoro-phenyl)-methyl]-amide]",110 nM
13,"Cc1c(C(=O)N[C@H](c2cccc(F)c2)C2CCC2)c2cc(F)cc(F)c2c(=O)n1-c1cccnc1 [7c, 6,8-Difluoro-3-methyl-1-oxo-2-pyridin-3-yl-1,2-dihydro-isoquinoline-4-carboxylic acid [(S)-cyclobutyl-(3-fluoro-phenyl)-methyl]-amide]",15 nM
14,"Cc1c(C(=O)N[C@H](c2cccc(F)c2)C2CC2)c2cccc(O)c2c(=O)n1-c1cccnc1 [8a, 8-Hydroxy-3-methyl-1-oxo-2-pyridin-3-yl-1,2-dihydro-isoquinoline-4-carboxylic acid [(S)-cyclopropyl-(3-fluoro-phenyl)-methyl]-amide]",33 nM
